Data published in patent US20070128217A1 (priority 2003, published 2007).

Experiments:
[1] = test system: control sera (pooled serum of ten healthy LUMC hospital workers; commercial negative donor pooled serum from the Dutch bloodbank); type: binding, human; set-up: Binding of Control serum LUMC to linear peptides / Binding of Control serum Blood-bank to linear peptides / Binding of Control serum LUMC to looped peptides / Binding of Control Serum Blood-Bank to Looped peptides / Binding of Control serum LUMC to linear peptides of the protein M of SARS-CoV Urbani / Binding of Control serum Blood-bank to linear peptides of the protein M of SARS-CoV Urbani / Binding of Control serum LUMC to looped peptides of the protein M of SARS-CoV Urbani / Binding of Control Serum Blood-Bank to Looped peptides of the protein M of SARS-CoV Urbani: unit not given here
[2] = test system: antibodies in sera from SARS patients (sera 1a, 1b, 2, 6, 37, 62, London, SARS-yellow, SARS-green); type: binding, human; set-up: Binding of serum 6 to linear peptides of protein X1 of SARS-CoV Urbani / Binding of serum 37 to linear peptides of protein X1 of SARS-CoV Urbani / Binding of serum 6 to looped/cyclic peptide (PEPSCAN-ELISA) / Binding of serum 37 to looped/cyclic peptide (PEPSCAN-ELISA) / Binding of serum 37 to looped/cyclic peptides of protein X1 of SARS-CoV Urbani / Binding of serum 6 to linear peptides of protein X2 / Binding of serum 37 to linear peptides of protein X2 / Binding of serum 37 to looped/cyclic peptides of protein X2 of SARS-CoV Urbani / Binding of serum 6 to linear peptides of protein M of SARS-CoV Urbani / Binding of serum 37 to linear peptides of protein M of SARS-CoV Urbani / Binding of serum 6 to looped/cyclic peptides of protein M of SARS-CoV Urbani / Binding of serum 37 to looped/cyclic peptides of protein M of SARS-CoV Urbani / Binding of serum 6 to linear peptides of protein X3 of SARS-CoV Urbani / Binding of serum 37 to linear peptides of protein X3 of SARS-CoV Urbani / Binding of serum 37 to looped/cyclic peptides of protein X3 of SARS-CoV Urbani / Binding of serum 6 to linear peptides of protein X4 of SARS-CoV Urbani / Binding of serum 37 to linear peptides of protein X4 of SARS-CoV Urbani / Binding of serum 37 to looped/cyclic peptides of protein X4 of SARS-CoV Urbani / Binding of serum 6 to linear peptides of protein X5 of SARS-CoV Urbani / Binding of serum 37 to linear peptides of protein X5 of SARS-CoV Urbani / Binding of serum 37 to looped/cyclic peptides of protein X5 of SARS-CoV Urbani / Binding of serum 6 to linear peptides of protein N of SARS-CoV Urbani / Binding of serum 37 to linear peptides of protein N of SARS-CoV Urbani / Binding of serum 6 to linear peptide (PEPSCAN-ELISA) / Binding of serum 1a to looped/cyclic peptides of protein N of SARS-CoV Urbani / Binding of serum 1b to looped/cyclic peptides of protein N of SARS-CoV Urbani / Binding of serum 2 to looped/cyclic peptides of protein N of SARS-CoV Urbani / Binding of serum 6 to looped/cyclic peptides of protein N of SARS-CoV Urbani / Binding of serum 37 to looped/cyclic peptides of protein N of SARS-CoV Urbani / Binding of serum 62 to looped/cyclic peptides of protein N of SARS-CoV Urbani / Binding of serum London to looped/cyclic peptides of protein N of SARS-CoV Urbani / Binding of serum SARS-green to looped/cyclic peptides of protein N of SARS-CoV Urbani: unit not given here
[3] = test system: rabbit serum obtained by immunizing a rabbit with the SARS-CoV strain Frankfurt 1; type: binding; set-up: Binding of a rabbit serum to linear peptides / Binding of a rabbit serum to looped peptides / Rabbit serum linear peptides / Rabbit serum looped peptides / Binding of a rabbit serum to linear peptides of protein N of SARS-CoV Urbani (Rabbit serum linear peptides) / Binding of a rabbit serum to looped/cyclic peptides of protein N of SARS-CoV Urbani (Rabbit serum looped peptides): unit not given here

Sequence: LKILVRYNTRGNTYS
- Binding of Control Serum Blood-Bank to Looped peptides [1]: 0.4
- Binding of Control serum Blood-bank to linear peptides [1]: 0.7
- Binding of Control serum LUMC to linear peptides [1]: 0.5
- Binding of Control serum LUMC to looped peptides [1]: 0.6
- Binding of serum 1a to linear peptides of protein X5 of SARS-CoV Urbani [2]: 0.7
- Binding of serum 1a to looped/cyclic peptides of protein X5 of SARS-CoV Urbani [2]: 0.5
- Binding of serum 1b to linear peptides of protein X5 of SARS-CoV Urbani [2]: 0.6
- Binding of serum 1b to looped/cyclic peptides of protein X5 of SARS-CoV Urbani [2]: 0.4
- Binding of serum 2 to linear peptides of protein X5 of SARS-CoV Urbani [2]: 0.8
- Binding of serum 2 to looped/cyclic peptides of protein X5 of SARS-CoV Urbani [2]: 0.6
- Binding of serum 6 to linear peptides of protein X5 of SARS-CoV Urbani [2]: 0.8
- Binding of serum 6 to looped/cyclic peptides of protein X5 of SARS-CoV Urbani [2]: 0.5
- Binding of serum 37 to linear peptides of protein X5 of SARS-CoV Urbani [2]: 0.7
- Binding of serum 37 to looped/cyclic peptides of protein X5 of SARS-CoV Urbani [2]: 0.5
- Binding of serum 62 to linear peptides of protein X5 of SARS-CoV Urbani [2]: 0.8
- Binding of serum 62 to looped/cyclic peptides of protein X5 of SARS-CoV Urbani [2]: 0.7
- Binding of serum London to linear peptides of protein X5 of SARS-CoV Urbani [2]: 0.7
- Binding of serum London to looped/cyclic peptides of protein X5 of SARS-CoV Urbani [2]: 0.2
- Binding of serum SARS-green to linear peptides of protein X5 of SARS-CoV Urbani [2]: 0.6
- Binding of serum SARS-green to looped/cyclic peptides of protein X5 of SARS-CoV Urbani [2]: 0.4
- Binding of serum SARS-yellow to linear peptides of protein X5 of SARS-CoV Urbani [2]: 0.3
- Binding of serum SARS-yellow to looped/cyclic peptides of protein X5 of SARS-CoV Urbani [2]: 0.8
- Rabbit serum linear peptides [3]: 0.9
- Rabbit serum looped peptides [3]: 0.1

Sequence: QCINACRIIMRCWLC
- Binding of Control Serum Blood-Bank to Looped peptides [1]: 0.6
- Binding of Control serum Blood-bank to linear peptides [1]: 0.9
- Binding of Control serum LUMC to linear peptides [1]: 0.7
- Binding of Control serum LUMC to looped peptides [1]: 0.7
- Binding of serum 1a to linear peptides of protein X1 of SARS-CoV Urbani [2]: 0.8
- Binding of serum 1a to looped/cyclic peptide (PEPSCAN-ELISA) [2]: 0.6
- Binding of serum 1b to linear peptides of protein X1 of SARS-CoV Urbani [2]: 0.6
- Binding of serum 1b to looped/cyclic peptide (PEPSCAN-ELISA) [2]: 0.4
- Binding of serum 2 to linear peptides of protein X1 of SARS-CoV Urbani [2]: 0.5
- Binding of serum 2 to looped/cyclic peptide (PEPSCAN-ELISA) [2]: 0.6
- Binding of serum 6 to linear peptides of protein X1 of SARS-CoV Urbani [2]: 0.8
- Binding of serum 6 to looped/cyclic peptide (PEPSCAN-ELISA) [2]: 0.8
- Binding of serum 37 to linear peptides of protein X1 of SARS-CoV Urbani [2]: 0.7
- Binding of serum 37 to looped/cyclic peptide (PEPSCAN-ELISA) [2]: 0.6
- Binding of serum 62 to linear peptides of protein X1 of SARS-CoV Urbani [2]: 0.7
- Binding of serum 62 to looped/cyclic peptide (PEPSCAN-ELISA) [2]: 0.7
- Binding of serum London to linear peptides of protein X1 of SARS-CoV Urbani [2]: 0.4
- Binding of serum London to looped/cyclic peptide (PEPSCAN-ELISA) [2]: 1.4
- Binding of serum SARS-green to linear peptides of protein X1 of SARS-CoV Urbani [2]: 0.2
- Binding of serum SARS-green to looped/cyclic peptide (PEPSCAN-ELISA) [2]: 0.2
- Binding of serum SARS-yellow to linear peptides of protein X1 of SARS-CoV Urbani [2]: 0.3
- Binding of serum SARS-yellow to looped/cyclic peptide (PEPSCAN-ELISA) [2]: 0.4
- Recognition of the peptide by the rabbit serum [3]: recognized

Sequence: YQLESTQITTDTGIE
- Binding of Control Serum Blood-Bank to Looped peptides [1]: 0.3
- Binding of Control serum Blood-bank to linear peptides [1]: 0.4
- Binding of Control serum LUMC to linear peptides [1]: 0.4
- Binding of Control serum LUMC to looped peptides [1]: 0.4
- Binding of serum 1a to linear peptides of protein X1 of SARS-CoV Urbani [2]: 0.6
- Binding of serum 1a to looped/cyclic peptides of protein X1 of SARS-CoV Urbani [2]: 0.4
- Binding of serum 1b to linear peptides of protein X1 of SARS-CoV Urbani [2]: 0.5
- Binding of serum 1b to looped/cyclic peptides of protein X1 of SARS-CoV Urbani [2]: 0.3
- Binding of serum 2 to linear peptides of protein X1 of SARS-CoV Urbani [2]: 0.4
- Binding of serum 2 to looped/cyclic peptides of protein X1 of SARS-CoV Urbani [2]: 0.1
- Binding of serum 6 to linear peptides of protein X1 of SARS-CoV Urbani [2]: 0.5
- Binding of serum 6 to looped/cyclic peptides of protein X1 of SARS-CoV Urbani [2]: 0.1
- Binding of serum 37 to linear peptides of protein X1 of SARS-CoV Urbani [2]: 0.6
- Binding of serum 37 to looped/cyclic peptides of protein X1 of SARS-CoV Urbani [2]: 0.3
- Binding of serum 62 to linear peptides of protein X1 of SARS-CoV Urbani [2]: 0.5
- Binding of serum 62 to looped/cyclic peptides of protein X1 of SARS-CoV Urbani [2]: 0.3
- Binding of serum London to linear peptides of protein X1 of SARS-CoV Urbani [2]: 0.2
- Binding of serum London to looped/cyclic peptides of protein X1 of SARS-CoV Urbani [2]: 0.1
- Binding of serum SARS-green to linear peptides of protein X1 of SARS-CoV Urbani [2]: 0.4
- Binding of serum SARS-green to looped/cyclic peptides of protein X1 of SARS-CoV Urbani [2]: 0.2
- Binding of serum SARS-yellow to linear peptides of protein X1 of SARS-CoV Urbani [2]: 0.5
- Binding of serum SARS-yellow to looped/cyclic peptides of protein X1 of SARS-CoV Urbani [2]: 0.2
- Binding of a rabbit serum to linear peptides [3]: 0.1
- Binding of a rabbit serum to looped peptides [3]: 0.4
